Assay results: patent EP0523873A1, “Non-substrate peptide inhibitors of farnesyl protein transferase” (MERCK & CO. INC., priority 1991, dated 1993)
Where two headings read alike, the source gives them in different places. Square brackets hold non-standard residues; d marks the D form. Peptide text beside a SMILES is read from it. Phe(4-F) = N[C@@H](Cc1ccc(F)cc1)C(=O)O

Key:
[1] = target: farnesyl-protein transferase (bovine brain) (Bos taurus, UniProt P29702+P49355); details: read-out: KM for FPP; 30°C, 50 mM HEPES, pH 7.5, 5 mM MgCl2, 5 mM dithiothreitol
Method: (§1) Polyisoprenylation of Ras- [³H]Farnesyldiphosphate (FPP) (20 Ci/mmol) was purchased from New England Nuclear. Farnesyl-protein transferase activity assays were carried out as 30°C unless noted otherwise. […] After thermally pre-equilibrating the assay mixture in the absence of enzyme, reactions were initiated by the addition of farnesyl-protein transferase and stopped at timed intervals by the addition of 1 M HCl in ethanol (1 mL). The quenched reactions were allowed to stand for 15 minutes (to complete the precipitation process). After adding 2 mL of 100% ethanol, the reactions were vacuum-filtered through Whatman GF/C filters. Filters were washed four times with 2 mL aliquots of 100% ethanol, mixed with scintillation fluid (10 mL) and then counted in a Beckman LS3801 scintillation counter.
(§2) For inhibition studies, assays were run as described above, except putative inhibitors were added at the concentrations indicated. IC₅₀ values were determined with both farnesyl-protein transferase substrates at their KM concentrations.
Farnesyl-protein transferase was prepared from bovine brain. All purification steps were performed at 4°C. Cerebral lobes from bovine brains were homogenized in lysis buffer containing 50 mM. Tris-Cl, pH 8.0, 1 mM EGTA, 1 mM MgCl₂, 5 mM dithiothreitol, 10 µg/mL aprotinin, 0.5 mM phenylmethyl sulfonyl fluoride (PMSF), 2 µg/mL anitpain and 2 µg/mL leupeptin. […]

[2] = target: T1, Farnesyl-protein transferase from bovine brain (partially purified) (Bos taurus, UniProt P29702+P49355); assay: Inhibition of Ras farnesylation in vitro by tetrapeptides; format: biochemical
T1 construct: Farnesyl-protein transferase was prepared from bovine brain; from tissue; host or cells: bovine brain (cerebral lobes); Ras substrate expressed in E. coli
Method: as §1, §2
Farnesyl-protein transferase was prepared from bovine brain. All purification steps were performed at 4°C. Cerebral lobes from bovine brains were homogenized in lysis buffer containing 50 mM. Tris-Cl, pH 8.0, 1 mM EGTA, 1 mM MgCl₂, 5 mM dithiothreitol, 10 µg/mL aprotinin, 0.5 mM phenylmethyl sulfonyl fluoride (PMSF), 2 µg/mL anitpain and 2 µg/mL leupeptin. Cellular debris and membranes were removed by centrifugation (10,000 g for 20 minutes followed by 100,000 g for 30 minutes). The supernatant was loaded directly onto a column (30 cm x 20 cm²) [formula] of DEAE-Sephacel that had been equilibrated with lysis buffer. The column was washed with the same buffer and proteins were eluted with a linear gradient of NaCL (0-500 mM, 1 L + 1 L) [formula] in the same buffer. Fractions (20 mL) were collected and those containing farnesyl-protein transferase activity were pooled. Each pool was then applied to an ω-Aminooctyl agarose column (30 cm x 4.9 cm²) [formula] and eluted with a linear gradient of NaCl (0-500 mM, 500 mL + 500 mL) [formula] in lysis buffer. Fractions containing farnesylprotein transferase were pooled. For most assays further partial purifiation was achieved by HPLC using a Mono Q H.R. 10/10 column and eluting farnesyl-protein transferase activity with a 0-0.3 M NaCl gradient over 85 minutes at 2 ml/min.
Farnesyl-protein transferase from bovine brain was chromatographed on DEAE-Sephacel (Pharmacia, 0-0.8 M NaCl gradient elution), N-octyl agarose (Sigma, 0-0.6 M NaCl gradient elution), and a Mono Q HPLC column (Pharmacia, 0.0.3M NaCl gradient). […] Data presented in the Table 2 are the average of 2-5 determinations. Single capital letter amino acid abbreviations are used above.

[3] = tested on: partially pure bovine brain farnesyl-protein transferase; assay: Tetrapeptides tested as farnesylation substrates with [3H]FPP (TLC / autoradiography); format: biochemical; details: peptide 200 µM, 0.5 µM [3H]-FPP, 30 minutes at 30°C
Source text: (§3) When a peptide was used as the acceptor substrate, there were two changes to the assay: (1) Ras protein was excluded and, (2) the reactions were stopped by the addition of one tenth volume of 0.5 M EDTA. A portion of the reaction mixture was spotted onto a TLC plate (silica gel 60 thin layer chromatography plates (20 cm x 20 cm, 0.25 mm layer thickness) [formula] were from E. Merck (Darrnstadt)) and eluted with either ethyl acetate:pyridine:acetic acid:water (10:5:1:3) or n-propanol:water (7:3) elution systems. After drying under vacuum, the plates were sprayed with En³Hance and exposed to X-ray film at -70°C.
CAAX tetrapeptides and other tetrapeptides including Cys-Xaa¹-Xaa²-Xaa³ were tested as farnesylation substrates using [³H]FPP and partially pure bovine brain farnesyl-protein transferase.
The indicated peptides at 200 µM were incubated with partially pure bovine farnesyl-protein transferase and 0.5 µM [3H]-FPP for 30 minutes at 30°C. Autoradiographic exposure time was overnight (15-20 hours).

[4] = tested on: farnesyl-protein transferase; assay: Tetrapeptides tested as farnesylation substrates ([3H]FPP, TLC and autoradiography); format: biochemical; details: [³H]FPP, partially pure bovine brain farnesyl-protein transferase, TLC, autoradiography
Source text: as §3
CAAX tetrapeptides and other tetrapeptides including Cys-Xaa¹-Xaa²-Xaa³ were tested as farnesylation substrates using [³H]FPP and partially pure bovine brain farnesyl-protein transferase. […] Thin layer chromatography (TLC) conditions were developed which resolved the substrates farnesyl diphosphate (Rf = 0.06) [formula] and CVLS (Rf = 0.28) [formula] and product S-farnesyl-CVLS (Rf = 0.58) [formula] . These Rf values reflect TLC conditions using ethylacetate: pyridine:acetic acid:water (10:5:1:3) as the elutent. […] Control peptides having a Cys to Ser substitution were not substrates. […]

[5] = tested on: farnesyl-protein transferase; assay: Mechanism of inhibition using homogenous, pure farnesyl-protein transferase; format: biochemical, bovine
Method: To prepare pure enzyme, the […], […], was covalently bound to Affigel-10 under anhydrous conditions as described by the manufacture (15 µmol peptide per 1 mL of Affigel-10). Unreacted resin was treated with ethanolamine. After multiple passes of ω-aminooctyl-agarose-column-purified protein over the peptide column, the column was washed and eluted as described by Reiss, et al., (1990) ibid, to recover farnesyl-protein transferase activity.
To further verify that Cys-Xaa¹-Xaa²-Xaa³ were interacting with the active site of farnesyl-protein transfer, CIFM (SEQ ID NO: 2) was evaluated for its mechanism of inhibition using homogenous, pure farnesyl-protein transferase.

[6] = tested on: farnesyl-protein transferase; details: earlier findings (Schaber et al., ibid); cited from earlier work
[7] = Ras-CVLS at 3.5 µM, 0.25 µM [3H]FPP (both substrates at KM), average of 2-5 determinations, read-out: IC50

Row | IC50 [2, 7] | Farnesylation Substrate [3] | Compound | further results
1 | – | – | CC(C)=CCC/C(C)=C/CC/C(C)=C/CO[P@@](=O)(O)OP(=O)(O)O (stereo in doubt) [FPP, farnesyl diphosphate] | Km [1]: 0.25 µM
2 | 10 nM | - (- < 1% conversion) | CC[C@H](C)[C@H](NC(=O)[C@@H](N)CS)C(=O)N[C@@H](Cc1ccc(F)cc1)C(=O)N[C@@H](CCSC)C(=O)O [CI(p-fluoro-F)M] (H-CI[Phe(4-F)]M-OH) | –
3 | 10 nM | - (- < 1% conversion) | CC[C@H](C)[C@H](NC(=O)[C@@H](N)CS)C(=O)N[C@@H](Cc1ccccc1)C(=O)N[C@@H](CCSC)C(=O)O [CIFM, Cys-Ile-Phe-Met] (H-CIFM-OH) | farnesylation substrate activity [4]: do not serve as effective substrates; mechanism of inhibition with respect to Ras protein substrate [5]: competitive inhibitor; mechanism of inhibition with respect to farnesyl diphosphate [5]: not a competitive inhibitor
4 | 23 nM | - (- < 1% conversion) | CC[C@H](C)[C@H](NC(=O)[C@@H](N)CS)C(=O)N[C@@H](Cc1ccccc1)C(=O)N[C@@H](CCC(N)=O)C(=O)O [CIFQ, Cys-Ile-Phe-Gln] (H-CIFQ-OH) | –
5 | – | - (- < 1% conversion) | CSCC[C@H](NC(=O)[C@H](Cc1ccccc1)NC(=O)[C@@H](NC(=O)[C@@H](N)CS)C(C)C)C(=O)O [CVFM, Cys-Val-Phe-Met] | –
6 | – | - (- < 1% conversion) | CC(C)C[C@H](NC(=O)[C@@H](NC(=O)[C@@H](N)CO)C(C)C)C(=O)N[C@@H](CO)C(=O)O [SVLS] (H-SVLS-OH) | –
7 | – | – | SSGCVLS [heptapeptide SSGCVLS, earlier found to serve as a substrate for isoprenylation] | substrate for isoprenylation [6]: served as a substrate for isoprenylation

Row | Compound | IC50 [2, 7] | Farnesylation Substrate [3] | further results
8 | CC[C@H](C)[C@H](NC(=O)[C@H](C)NC(=O)[C@@H](N)CS)C(=O)N[C@@H](CCSC)C(=O)O [CAIM] (H-CAIM-OH) | 200 nM | + (+ > 90% [3H] farnesyl diphosphate converted to [3H] farnesyl tetrapeptide) | –
9 | CC[C@H](C)[C@H](NC(=O)[C@H](C)NC(=O)[C@@H](N)CS)C(=O)N[C@@H](CO)C(=O)O [CAIS] (H-CAIS-OH) | 1000 nM | + (+ > 90% [3H] farnesyl diphosphate converted to [3H] farnesyl tetrapeptide) | –
10 | CC[C@H](C)[C@H](NC(=O)[C@@H](NC(=O)[C@@H](N)CS)C(C)C)C(=O)N[C@@H](CCSC)C(=O)O [CVIM] (H-CVIM-OH) | – | + (+ > 90% [3H] farnesyl diphosphate converted to [3H] farnesyl tetrapeptide) | IC50 [2]: 100 nM
11 | CC[C@H](C)[C@H](NC(=O)[C@H](Cc1ccc(O)cc1)NC(=O)[C@@H](N)CS)C(=O)N[C@@H](CCSC)C(=O)O [CYIM] (H-CYIM-OH) | 100 nM | + (+ > 90% [3H] farnesyl diphosphate converted to [3H] farnesyl tetrapeptide) | –
